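Assay format: 96-well plates, 48-hour exposure. GI50 is the concentration that inhibits growth by half.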 Activity calls are given as the source filed them. No stated cut-off is given here; in the data, active = GI50 up to about 1.1 µM and inactive = higher.
Legend:
Test in all cases: NCI anticancer screen, dose series, 48 h
SK-MEL-5 = test system: SK-MEL-5
IGROV-1 = test system: IGROV-1
A549 = test system: A549
U-251 = test system: U-251
SN12C = test system: SN12C
SNB-75 = test system: SNB-75
NCI-H226 = test system: NCI-H226
HCT-116 = test system: HCT-116
HL-60 = test system: HL-60
KM12 = test system: KM12
MDA-N = test system: MDA-N
UACC-62 = test system: UACC-62
SF-539 = test system: SF-539
SK-MEL-2 = test system: SK-MEL-2
SK-OV-3 = test system: SK-OV-3
EKVX = test system: EKVX
UO-31 = test system: UO-31
SF-268 = test system: SF-268
LOX IMVI = test system: LOX IMVI
MDA-MB-435 = test system: MDA-MB-435

Compound	GI50 (SK-MEL-5)	GI50 (IGROV-1)	GI50 (A549)	GI50 (U-251)	GI50 (SN12C)	GI50 (SNB-75)	GI50 (NCI-H226)	GI50 (HCT-116)	GI50 (HL-60)	GI50 (KM12)	GI50 (MDA-N)	GI50 (UACC-62)	GI50 (SF-539)	GI50 (SK-MEL-2)	GI50 (SK-OV-3)	GI50 (EKVX)	GI50 (UO-31)	GI50 (SF-268)	GI50 (LOX IMVI)	GI50 (MDA-MB-435)
COc1cccc2c1-c1nc(N)c3c(OC)cccc3c1C2=O	> 100 µM (inactive)	> 100 µM (inactive)	> 100 µM (inactive)	> 100 µM (inactive)	95.1 µM (inactive)	22.3 µM (inactive)	48.3 µM (inactive)	> 100 µM (inactive)	19.6 µM (inactive)	16.1 µM (inactive)	> 100 µM (inactive)	> 100 µM (inactive)	> 100 µM (inactive)	> 100 µM (inactive)	> 100 µM (inactive)	54.1 µM (inactive)	45.1 µM (inactive)	68.4 µM (inactive)	59.7 µM (inactive)	> 100 µM (inactive)
Cc1cc(Cc2cc(C)c(N)cc2N)c(N)cc1N	> 100 µM (inactive)	4.38 µM (inactive)	> 100 µM (inactive)	> 100 µM (inactive)	> 100 µM (inactive)	> 100 µM (inactive)	> 100 µM (inactive)	> 100 µM (inactive)	> 100 µM (inactive)	85.5 µM (inactive)	> 100 µM (inactive)	> 100 µM (inactive)	80.2 µM (inactive)	> 100 µM (inactive)	> 100 µM (inactive)	> 100 µM (inactive)	> 100 µM (inactive)	89.3 µM (inactive)	81.5 µM (inactive)	99.3 µM (inactive)
CN[C@H]1CC[C@]23C[C@]24CC[C@]2(C)[C@@H]([C@H](C)N(C)C)CC[C@@]2(C)[C@@H]4CC[C@H]3C1(C)C	15.1 µM (inactive)	16.8 µM (inactive)	17.4 µM (inactive)	13.7 µM (inactive)	14.3 µM (inactive)	14.4 µM (inactive)	16.5 µM (inactive)	11.4 µM (inactive)	10.8 µM (inactive)	15 µM (inactive)	13.9 µM (inactive)	15.8 µM (inactive)	11.2 µM (inactive)	18 µM (inactive)	19.1 µM (inactive)	18.2 µM (inactive)	11.9 µM (inactive)	14.4 µM (inactive)	5.32 µM (inactive)	14.1 µM (inactive)
Cc1nc(Nc2ccccc2Cl)sc1C(=O)CC(=O)C(N)=O	–	39.3 µM (inactive)	41.8 µM (inactive)	41.9 µM (inactive)	37.8 µM (inactive)	6.87 µM (inactive)	22.7 µM (inactive)	10.9 µM (inactive)	11.8 µM (inactive)	13.2 µM (inactive)	19.4 µM (inactive)	35.1 µM (inactive)	76.4 µM (inactive)	35.1 µM (inactive)	44.9 µM (inactive)	18.2 µM (inactive)	21.7 µM (inactive)	> 100 µM (inactive)	27.4 µM (inactive)	16 µM (inactive)
Cc1sc2nc3n(c(=O)c2c1C)N=C(c1ccccc1)CS3	> 100 µM (inactive)	> 100 µM (inactive)	> 100 µM (inactive)	> 100 µM (inactive)	> 100 µM (inactive)	> 100 µM (inactive)	> 100 µM (inactive)	> 100 µM (inactive)	> 100 µM (inactive)	> 100 µM (inactive)	> 100 µM (inactive)	> 100 µM (inactive)	> 100 µM (inactive)	–	> 100 µM (inactive)	> 100 µM (inactive)	> 100 µM (inactive)	> 100 µM (inactive)	> 100 µM (inactive)	> 100 µM (inactive)
C=Cc1nc2nnc(CCCCCCCCc3nnc4nc(C=C)[nH]n34)n2[nH]1	41.6 µM (inactive)	> 100 µM (inactive)	51.8 µM (inactive)	30.7 µM (inactive)	> 100 µM (inactive)	> 100 µM (inactive)	> 100 µM (inactive)	47.2 µM (inactive)	34 µM (inactive)	> 100 µM (inactive)	> 100 µM (inactive)	–	> 100 µM (inactive)	> 100 µM (inactive)	> 100 µM (inactive)	61.5 µM (inactive)	> 100 µM (inactive)	> 100 µM (inactive)	93.5 µM (inactive)	> 100 µM (inactive)
CC(C)=CC[C@]12CCN(C)[C@H]1N(S(=O)(=O)c1ccccc1)c1ccccc12	11.9 µM (inactive)	> 56.9 µM (inactive)	–	32.7 µM (inactive)	> 62.2 µM (inactive)	17.3 µM (inactive)	> 38.5 µM (inactive)	> 44.6 µM (inactive)	28.4 µM (inactive)	26.1 µM (inactive)	48.2 µM (inactive)	> 35.6 µM (inactive)	58.9 µM (inactive)	15.5 µM (inactive)	6.25 µM (inactive)	> 24.2 µM (inactive)	> 22.5 µM (inactive)	> 44.6 µM (inactive)	> 37.1 µM (inactive)	> 44.7 µM (inactive)
COc1cc(/C=N/NC(=O)c2ccc(NC(C)=O)cc2OC)ccc1O	> 100 µM (inactive)	64 µM (inactive)	> 100 µM (inactive)	–	> 100 µM (inactive)	26.7 µM (inactive)	< 0.01 µM (active)	61.8 µM (inactive)	> 100 µM (inactive)	> 100 µM (inactive)	> 100 µM (inactive)	61.9 µM (inactive)	39.2 µM (inactive)	26.9 µM (inactive)	> 100 µM (inactive)	77.6 µM (inactive)	> 100 µM (inactive)	34.2 µM (inactive)	47.4 µM (inactive)	> 100 µM (inactive)
CN(C(=O)C1=CCC2(CC1)OCCO2)c1ccccc1OS(=O)(=O)C(F)(F)F	> 100 µM (inactive)	–	> 100 µM (inactive)	> 100 µM (inactive)	> 100 µM (inactive)	15.5 µM (inactive)	16.2 µM (inactive)	> 100 µM (inactive)	> 100 µM (inactive)	25.3 µM (inactive)	> 100 µM (inactive)	> 100 µM (inactive)	–	> 100 µM (inactive)	> 100 µM (inactive)	> 100 µM (inactive)	> 100 µM (inactive)	8.26 µM (inactive)	59.7 µM (inactive)	> 100 µM (inactive)
O=C1CCc2cc([N+](=O)[O-])ccc2O1	> 100 µM (inactive)	> 100 µM (inactive)	> 100 µM (inactive)	> 100 µM (inactive)	> 100 µM (inactive)	> 100 µM (inactive)	> 100 µM (inactive)	> 100 µM (inactive)	> 100 µM (inactive)	–	> 100 µM (inactive)	> 100 µM (inactive)	> 100 µM (inactive)	> 100 µM (inactive)	–	> 100 µM (inactive)	–	> 100 µM (inactive)	> 100 µM (inactive)	> 100 µM (inactive)
O=[N+]([O-])c1ccc(C2ON=C(c3ccccc3)N2C23CC4CC(CC(C4)C2)C3)cc1 (stereo unspecified)	> 10 µM (inactive)	> 10 µM (inactive)	> 10 µM (inactive)	6.35 µM (inactive)	> 10 µM (inactive)	5.6 µM (inactive)	> 10 µM (inactive)	> 10 µM (inactive)	> 10 µM (inactive)	> 10 µM (inactive)	> 10 µM (inactive)	> 10 µM (inactive)	2.89 µM (inactive)	> 10 µM (inactive)	> 10 µM (inactive)	> 10 µM (inactive)	–	> 10 µM (inactive)	> 10 µM (inactive)	> 10 µM (inactive)
O=C1/C(=C/c2cccc(Cl)c2)CCCc2ccccc21	–	15.4 µM (inactive)	26.5 µM (inactive)	15.8 µM (inactive)	18.2 µM (inactive)	15.6 µM (inactive)	16.1 µM (inactive)	12.9 µM (inactive)	11.9 µM (inactive)	17.9 µM (inactive)	16.9 µM (inactive)	13.7 µM (inactive)	17.9 µM (inactive)	17.4 µM (inactive)	45.8 µM (inactive)	16.7 µM (inactive)	16.1 µM (inactive)	16.8 µM (inactive)	17.8 µM (inactive)	16.2 µM (inactive)
OCC1CCCCN1Cc1nc2cc(Cl)ccc2[nH]1 (stereo unspecified)	> 100 µM (inactive)	> 100 µM (inactive)	> 100 µM (inactive)	> 100 µM (inactive)	> 100 µM (inactive)	> 100 µM (inactive)	95.5 µM (inactive)	> 100 µM (inactive)	> 100 µM (inactive)	> 100 µM (inactive)	> 100 µM (inactive)	> 100 µM (inactive)	> 100 µM (inactive)	> 100 µM (inactive)	> 100 µM (inactive)	> 100 µM (inactive)	> 100 µM (inactive)	> 100 µM (inactive)	–	> 100 µM (inactive)
c1ccc(C2=Nc3nc4ccccc4n3C(c3ccccc3)C2)cc1 (stereo unspecified)	> 100 µM (inactive)	> 100 µM (inactive)	> 100 µM (inactive)	> 100 µM (inactive)	–	27.9 µM (inactive)	> 100 µM (inactive)	> 100 µM (inactive)	> 100 µM (inactive)	> 100 µM (inactive)	> 100 µM (inactive)	> 100 µM (inactive)	> 100 µM (inactive)	> 100 µM (inactive)	> 100 µM (inactive)	> 100 µM (inactive)	> 100 µM (inactive)	> 100 µM (inactive)	> 100 µM (inactive)	36 µM (inactive)
